Laboratory results published in paper PMC11997999, “Uncovering α-Selectivity for Liver X Receptor Agonists for Lipotoxic Cancer Therapies” (Journal of Medicinal Chemistry, 2025).
Like-named read-outs stand apart in the source and are kept apart here.

Columns and labels:
[1] = molecular target: T1, LXRα LBD (GST) (Homo sapiens, UniProt Q13133); test: Time-resolved LXR FRET assay (LanthaScreen TR-FRET LXRα Coactivator Assay Kit); format: biochemical
T1 construct: 5 nM LXRα LBD (GST); 10 nM LXRβ LBD (GST); purchased ThermoFisher Scientific PV4655
T1 sequence (Q13133 209-447 limits assumed): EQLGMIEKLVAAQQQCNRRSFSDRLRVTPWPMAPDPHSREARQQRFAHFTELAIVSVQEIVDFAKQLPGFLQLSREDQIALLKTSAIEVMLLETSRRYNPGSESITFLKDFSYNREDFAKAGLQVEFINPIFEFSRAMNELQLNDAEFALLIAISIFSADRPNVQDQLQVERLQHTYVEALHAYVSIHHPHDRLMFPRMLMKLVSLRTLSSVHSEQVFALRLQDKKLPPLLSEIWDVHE
Description: (§1) The biochemical TR-FRET assays were performed using the LanthaScreen TR-FRET LXRα Coactivator Assay Kit, goat (ThermoFisher Scientific, PV4655), and the LanthaScreen TR-FRET LXRβ assay kit, goat (ThermoFisher Scientific, PV4658), according to the manufacturer’s instructions using the following concentrations: 5 nM LXRα LBD (GST); 10 nM LXRβ LBD (GST); 500 nM fluorescein-TRAP220/DRIP-2; 200 nM fluorescein-D22; 10 nM Tb anti-GST antibody. The TR-FRET signals were measured after 6 h using a TECAN SPARK multimode microplate reader with the following settings: first excitation wavelength: 360 nm (bandwidth 35 nm), first emission wavelength: 485 nm (bandwidth 20 nm); second excitation wavelength: 360 nm (bandwidth 35 nm), second emission wavelength: 535 nm (bandwidth 25 nm); integration time: 200 μs; lag time: 100 μs; settle time: 0 ms.

[2] = molecular target: T2, LXRα (Homo sapiens, UniProt Q13133); test: LXRα-specific LXRE-GFP reporter assay in Hep3B cells (NR1H2 knockout); format: cell-based; details: 48h of treatment, GFP by FACS
T2 construct: To measure the activity of the remaining isoform under treatment; endogenous in cells; host or cells: Hep3B (NR1H2 knockout, LXRE-GFP reporter)
T2 sequence (Q13133 1-447): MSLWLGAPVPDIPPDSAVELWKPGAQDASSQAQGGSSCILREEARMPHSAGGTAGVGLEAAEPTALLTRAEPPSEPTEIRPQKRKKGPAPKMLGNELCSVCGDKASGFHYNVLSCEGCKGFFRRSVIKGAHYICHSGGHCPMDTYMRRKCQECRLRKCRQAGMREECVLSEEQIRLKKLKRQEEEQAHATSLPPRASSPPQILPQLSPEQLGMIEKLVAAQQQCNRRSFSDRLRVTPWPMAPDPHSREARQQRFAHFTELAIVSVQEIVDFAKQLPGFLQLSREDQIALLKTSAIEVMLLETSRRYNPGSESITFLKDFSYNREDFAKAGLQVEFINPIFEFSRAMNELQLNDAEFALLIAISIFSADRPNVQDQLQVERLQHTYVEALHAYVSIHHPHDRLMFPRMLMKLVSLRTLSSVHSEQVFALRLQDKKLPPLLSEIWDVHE

[3] = molecular target: T3, LXRβ (Homo sapiens, UniProt P55055); test: LXRβ-specific LXRE-GFP reporter assay in Hep3B cells (NR1H3 knockout); format: cell-based; details: 48h of treatment, GFP by FACS
T3 construct: To measure the activity of the remaining isoform under treatment; endogenous in cells; host or cells: Hep3B (NR1H3 knockout, LXRE-GFP reporter)
T3 sequence (P55055 1-460): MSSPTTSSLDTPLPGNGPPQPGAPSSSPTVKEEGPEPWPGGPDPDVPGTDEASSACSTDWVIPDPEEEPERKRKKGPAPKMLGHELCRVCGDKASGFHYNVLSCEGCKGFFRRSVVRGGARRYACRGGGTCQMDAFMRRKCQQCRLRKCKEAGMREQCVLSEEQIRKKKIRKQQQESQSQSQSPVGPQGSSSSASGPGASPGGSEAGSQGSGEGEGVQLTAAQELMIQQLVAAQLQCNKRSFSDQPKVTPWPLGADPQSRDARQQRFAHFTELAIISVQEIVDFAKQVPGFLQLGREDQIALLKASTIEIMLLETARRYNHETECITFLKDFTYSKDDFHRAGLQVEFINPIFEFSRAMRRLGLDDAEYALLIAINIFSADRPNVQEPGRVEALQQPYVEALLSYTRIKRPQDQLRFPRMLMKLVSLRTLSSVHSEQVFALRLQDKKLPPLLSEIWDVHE

[4] = molecular target: T4, LXRβ LBD (GST) (Homo sapiens, UniProt P55055); test: Time-resolved LXR FRET assay (LanthaScreen TR-FRET LXRβ assay kit); format: biochemical
T4 construct: 5 nM LXRα LBD (GST); 10 nM LXRβ LBD (GST); purchased ThermoFisher Scientific PV4658
T4 sequence (P55055 222-460 limits assumed): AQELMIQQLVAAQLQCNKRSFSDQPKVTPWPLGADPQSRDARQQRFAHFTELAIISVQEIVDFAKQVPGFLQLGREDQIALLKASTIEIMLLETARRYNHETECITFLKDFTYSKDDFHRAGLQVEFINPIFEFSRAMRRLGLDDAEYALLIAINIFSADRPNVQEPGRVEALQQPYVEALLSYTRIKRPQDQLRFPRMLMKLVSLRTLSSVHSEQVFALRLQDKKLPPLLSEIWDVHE
Description: as §1

[5] = test system: Akt1^Myr; Myc^OE HCC organoids; test: Cell viability analysis in HCC organoids (CellTiter-Glo 3D); format: cell-based, murine; details: 5d, with 4 μM sorafenib
Description: Finally, we analyzed the efficacy of compound 40 in preclinical treatment studies in three-dimensional liver cancer organoid cultures. HCC organoids driven by myristoylated Akt1 and overexpressed Myc (Akt1^Myr; Myc^OE) were isolated from murine liver tumors and subjected to monotherapies of sorafenib, compound 40, or a combination thereof (Figure 7C). The therapeutic outcome was side-by-side compared with combinatorial therapies comprising the established agonists T0901317 (1) and GW3965 (2). […] Isolation of murine HCC organoid cultures was performed from liver tumors derived from C57BL/6 mice using established protocols.[26] The animal experiments were approved by committees of the regional authority of the state of Baden-Wuerttemberg (Regierungspraesidium Tuebingen, authorization number M15/18G) as appropriate. After digestion, the organoids were embedded in 100% Growth Factor Reduced (GFR) MatrigelTM (Corning) and cultured at 37 °C and 5% CO2 in HCC organoid medium supplemented with nicotinamide (10 mM), N-acetylcystein (1.25 mM), human HGF (50 ng/mL), human FGF-10 (100 ng/mL), human R-Spondin (0.5 μg/mL), forskolin (10 μM), A83- 01 (0.5 μM), murine Noggin (50 ng/mL), gastrin I (10 nM), human BMP-7 (25 ng/mL), human Wnt3a (100 ng/mL), B27 supplement (1×) and N2 supplement (1×). The cultures were split by mechanical dissociation every 3 to 4 days. […] Cell viability was determined after 5 days of treatment using the CellTiter-Glo 3D Cell Viability Assay Kit (Promega). Cell viability of Hep3B, AML12, and BNL CL.2 cells was determined after 5 days of treatment in white 96 well plates (Sarstedt) using the CellTiter-Glo 2.0 Cell Viability Assay Kit (Promega). […] The luminescence signal was measured using an […] M PLEX plate reader (Tecan) and the Tecan i-control software (v3.9.1). […]

[6] = test system: Hep3B cells; test: Cell viability analysis in Hep3B cells (CellTiter-Glo); format: cell-based, human; details: 5 d, 2 μM
Description: To determine the therapeutic efficacy of compound 40 in HCC cells, we next tested its effect on Hep3B cell viability in combination with the DFG-out Raf inhibitor sorafenib (2 μM).
For organoid treatment studies, digestion of organoids was performed using TrypLE Express (Gibco) supplemented with 100 μg/mL DNaseI and 10.5 μM Y-27632 dihydrochloride (Invitrogen) at 37 °C, and afterward, single-cells were plated in white 96 well plates (Sarstedt) in a mixture of 10% Matrigel (Growth Factor Reduced (GFR) Matrigel, Corning) in culture medium. Cell viability was determined after 5 days of treatment using the CellTiter-Glo 3D Cell Viability Assay Kit (Promega). Cell viability of Hep3B, AML12, and BNL CL.2 cells was determined after 5 days of treatment in white 96 well plates (Sarstedt) using the CellTiter-Glo 2.0 Cell Viability Assay Kit (Promega). AML12 and BNL CL.2 cells were also obtained from the American Type Culture Collection. The luminescence signal was measured using an […] M PLEX plate reader (Tecan) and the Tecan i-control software (v3.9.1). Sodium oleate (Selleckchem) was dissolved in methanol and added to cells at a final concentration of 200 μM.

[7] = 5 nM LXRα LBD (GST), read after 6 h, R^2 of fit given, read-out: TR-FRET activity (EC50) LXRα
[8] = 10 nM LXRβ LBD (GST), read after 6 h, R^2 of fit given, read-out: TR-FRET activity (EC50) LXRβ
[9] = supplement list of compounds, LXRα, unit inferred, read-out: FRET activity a
[10] = supplement list of compounds, (LXRβ), unit inferred, read-out: FRET activity b
[11] = statement made for both isoforms

Question: Which EC50 [1, 7] does the source give for `NC1CCN(c2ccc(NC3=C(c4ccccc4)C(=O)N(Cc4ccccc4)C3=O)cc2)CC1` [Compound 46, 3-((4-(4-Aminopiperidin-1-yl)phenyl)amino)-1-benzyl-4-phenyl-1H-pyrrole-2,5-dione] here?
Answer: 630 nM

Question: What about the EC50 [2] of the same compound?
Answer: 1480 nM

Question: What about the EC50 [3] of the same compound?
Answer: 1250 nM

Question: And the EC50 [4, 8]?
Answer: 120 nM

Question: For `CN1CCC(Nc2ccc(NC3=C(c4ccccc4)C(=O)N(Cc4ccccc4)C3=O)cc2)CC1` [Compound 48, 1-Benzyl-3-((4-((1-methylpiperidin-4-yl)amino)phenyl)amino)-4-phenyl-1H-pyrrole-2,5-dione], which EC50 [1, 9] is on record?
Answer: 786 nM

Question: What about the EC50 [4, 10] of the same compound?
Answer: 150 nM

Question: Which results are given for `O=C1CCN(c2ccc(NC3=C(c4ccccc4)C(=O)N(Cc4ccccc4)C3=O)cc2)CC1` [Compound 49, 1-Benzyl-3-((4-(4-oxopiperidin-1-yl)phenyl)amino)-4-phenyl-1H-pyrrole-2,5-dione]?
Answer: EC50 [1, 9]: 103 nM; EC50 [4, 10]: 130 nM

Question: Which EC50 [1, 9] does the source give for `O=C(c1ccc(NC2=C(c3ccccc3)C(=O)N(Cc3ccccc3)C2=O)cc1)N1CCCCC1` [Compound 50, 1-Benzyl-3-phenyl-4-((4-(piperidine-1-carbonyl)phenyl)amino)-1H-pyrrole-2,5-dione] here?
Answer: 74 nM

Question: And the EC50 [4, 10]?
Answer: 225 nM

Question: `CC(C)(C)N1C(=O)C(Nc2ccc(N3CCCCC3)cc2)=C(c2ccccc2)C1=O` [Compound 51, 1-(tert-Butyl)-3-phenyl-4-((4-(piperidin-1-yl)phenyl)amino)-1H-pyrrole-2,5-dione] was tested. Which EC50 [1, 7] did it give?
Answer: 36 nM

Question: What about the EC50 [2] of the same compound?
Answer: 19 nM

Question: And the EC50 [3]?
Answer: 113 nM

Question: And the EC50 [4, 8]?
Answer: 156 nM

Question: With `O=C1NC(=O)C(c2ccccc2)=C1Nc1ccc(N2CCCCC2)cc1` [Compound 52, 3-Phenyl-4-((4-(piperidin-1-yl)phenyl)amino)-1H-pyrrole-2,5-dione] as the compound, how does the EC50 [1, 7] read?
Answer: > 3000 nM

Question: What about the “TR-FRET activity on LXRα, in words” value [1, 11] of the same compound?
Answer: no activity

Question: And the EC50 [4, 8]?
Answer: > 3000 nM

Question: And the “TR-FRET activity on LXRβ, in words” value [4, 11]?
Answer: no activity

Question: How did the EC50 [1, 7] turn out when `COc1ccc(NC2=C(c3ccccc3)C(=O)N(Cc3ccccc3)C2=O)cc1` [GSK3987 (3), 1-Benzyl-3-((4-methoxyphenyl)amino)-4-phenyl-1H-pyrrole-2,5-dione, reference compound] was run?
Answer: 154 nM

Question: What about the EC50 [2] of the same compound?
Answer: 99 nM

Question: What about the EC50 [3] of the same compound?
Answer: 248 nM

Question: What about the EC50 [4, 8] of the same compound?
Answer: 180 nM

Question: What does the source list for `O=C(O)Cc1cccc(OCCCN(Cc2cccc(C(F)(F)F)c2Cl)CC(c2ccccc2)c2ccccc2)c1` [GW3965 (2), reference compound]?
Answer: EC50 [1, 7]: 87 nM; therapeutic efficacy (cell viability) in combination with sorafenib [5]: dose-dependent response; EC50 [2]: 320 nM; EC50 [3]: 40 nM; EC50 [4, 8]: 24 nM

Question: Which “therapeutic efficacy (cell viability) in combination with sorafenib” value [5] does the source give for `O=S(=O)(c1ccccc1)N(CC(F)(F)F)c1ccc(C(O)(C(F)(F)F)C(F)(F)F)cc1` [T0901317 (1)] here?
Answer: dose-dependent response

Question: For `CNC(=O)c1cc(Oc2ccc(NC(=O)Nc3ccc(Cl)c(C(F)(F)F)c3)cc2)ccn1` [sorafenib, reference compound], which “therapeutic effect on cell viability, sorafenib monotherapy” value [6] is on record?
Answer: only a low therapeutic effect
